Assay results reported in patent US20090029982A1, “PROTEIN KINASE INHIBITORS” (SUPERGEN, INC., priority 2005, published 2009).

Legend:
[1] = biological target: T1, recombinant aurora-2 kinase (Homo sapiens, UniProt O14965); assay: aurora-2 kinase inhibition assay (Kinase-Glo, ATP remaining); format: biochemical; conditions: Example 20, Table 2; 3 μM ATP, 62.5 μM Kemptide, 30° C., two hours; read-out: IC50 A2K
T1 construct: purchased Upstate, Lake Placid, N.Y; host or cells: sf9 cells
T1 sequence (O14965 1-403): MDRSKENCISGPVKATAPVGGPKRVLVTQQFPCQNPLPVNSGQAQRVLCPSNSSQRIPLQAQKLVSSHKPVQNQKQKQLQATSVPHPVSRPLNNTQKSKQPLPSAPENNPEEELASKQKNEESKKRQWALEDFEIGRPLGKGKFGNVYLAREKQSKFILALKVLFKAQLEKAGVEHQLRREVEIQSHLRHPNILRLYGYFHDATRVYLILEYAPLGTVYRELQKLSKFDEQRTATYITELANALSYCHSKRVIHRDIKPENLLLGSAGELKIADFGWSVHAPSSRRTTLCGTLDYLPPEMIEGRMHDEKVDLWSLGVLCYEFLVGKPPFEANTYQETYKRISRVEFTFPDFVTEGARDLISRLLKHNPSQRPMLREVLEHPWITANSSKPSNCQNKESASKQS
Protocol: In this assay kinase activity was determined by quantifying the amount of ATP remaining in solution following a kinase reaction by measuring the light units (LU) produced by luciferase using a luminometer. Percent inhibition was determined for individual compounds by comparing luminometer readings of drug-treated reactions to controls containing no drug (DMSO control) and no Aurora-2 enzyme (ATP control) in the following equation: […]
In a 50 μl reaction, recombinant aurora-2 kinase produced in sf9 cells (Upstate, Lake Placid, N.Y.) was incubated at 30° C. for two hours with 62.5 μM Kemptide (Calbiochem, San Diego, Calif.), 3 μM ATP (Invitrogen, Carlsbad, Calif.) and kinase reaction buffer (40 mM Tris-HCl, 10 mM MgCl2 and 0.1 μg/μl bovine serum albumin (BSA)). This reaction was carried out in the presence of drug substances, which had been previously diluted to desired concentrations in DMSO. […] Kinase activity is determined by quantifying the amount of ATP remaining in solution following the kinase reaction by measuring the light units (LU) produced by luciferase using a luminometer (Thermo-Electron, Vantaa, Finland).
Briefly, kinase activity was determined by quantifying the amount of ATP remaining in solution following a kinase reaction by measuring the light units (LU) produced by luciferase using a luminometer. […]

[2] = system: HT-29 human colon cancer cells; assay: HT-29 xenograft study in mice; format: in vivo; conditions: 25 mg/kg intraperitoneally, q.d.×5 for two weeks
Protocol: In order to evaluate the effectiveness of MP277 against tumor cells in a living system, a xenograft study was performed in mice. 1×10^7 HT-29 human colon cancer cells were injected subcutaneously into 16 Nu/Nu athymic nude mice (Charles River Laboratories, Wilmington, Mass.). Tumor volume was measured according to the formula ((Width)^2*Length)/2. Tumors were allowed to grow to approximately 100 mm^3 in volume (Day 0), at which point mice were randomized to two groups: Eight mice were treated with 25 mg/kg MP277, while the other eight were given an equal volume of drug vehicle. For this study, the drug vehicle used was 60% propylene glycol, 30% polyethylene glycol 300, 10% ethanol with 150 mg/mL 2-hydroxypropyl-beta-cyclodextrin. Each mouse received 0.1 mL of drug or vehicle intraperitoneally on a q.d.×5 schedule for two weeks, with two days rest between cycles.

| Compound | IC50 [1] [nM] | toxicity noted through the duration of the study ([2]; nude mice) | inhibition of tumor growth in vivo ([2]; subcutaneous HT-29 xenograft, FIG. 1) |
| --- | --- | --- | --- |
| COc1cc2[nH]c3ncnc(N4CCN(C(=S)Nc5ccc(S(=O)(=O)NC(C)=O)cc5)CC4)c3c2cc1OC [Compound 2] | 5 | – | – |
| CC(=O)NS(=O)(=O)c1ccc(NC(=S)N2CCN(c3ncnc4[nH]c5cc(C(F)(F)F)c(Cl)cc5c34)CC2)cc1 [Compound 1, 4-(6-Chloro-7-trifluoromethyl-9H-pyrimido[4,5-b]indol-4-yl)-piperazine-1-carbothioic acid (4-acetylsulfamoyl-phenyl)-amide] | – | No noticeable toxicity | effective for inhibiting tumor growth in vivo |
